Reference: PubChem BioAssay (NCI)
Where “and” joins values, the source holds several entries; their conditions need not be identical. Equal values may be shown once.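 All cell lines were grown in 96-well plates and treated with compound for 48 hours. GI50 is the concentration that inhibits growth by half. At the TGI there is no net growth.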

Legend:
Test in all cases: inhibition of tumour cell growth, NCI panel, 48 h
ACHN renal = test system: ACHN renal
CCRF-CEM leukemia = test system: CCRF-CEM leukemia
HS 578T breast = test system: HS 578T breast
K-562 leukemia = test system: K-562 leukemia
MALME-3M melanoma = test system: MALME-3M melanoma
OVCAR-3 ovarian = test system: OVCAR-3 ovarian
SF-295 CNS = test system: SF-295 CNS
SF-539 CNS = test system: SF-539 CNS
SK-MEL-5 melanoma = test system: SK-MEL-5 melanoma
SN12C renal = test system: SN12C renal

Compound | TGI (ACHN renal) | TGI (CCRF-CEM leukemia) | TGI (HS 578T breast) | TGI (K-562 leukemia) | TGI (MALME-3M melanoma) | TGI (OVCAR-3 ovarian) | TGI (SF-295 CNS) | TGI (SF-539 CNS) [µM] | TGI (SK-MEL-5 melanoma) | TGI (SN12C renal) | GI50 (ACHN renal) | GI50 (CCRF-CEM leukemia) | GI50 (HS 578T breast) | GI50 (K-562 leukemia) | GI50 (MALME-3M melanoma) | GI50 (OVCAR-3 ovarian) | GI50 (SF-295 CNS) | GI50 (SF-539 CNS) [µM] | GI50 (SK-MEL-5 melanoma) | GI50 (SN12C renal)
O=C(O)c1ccc(S(=O)(=O)N=Nc2c(O)[nH]c3ccccc23)cc1 | > 100 µM | > 100 µM | > 100 µM | > 100 µM | > 100 µM | > 100 µM | > 100 µM | > 100 | > 100 µM | > 100 µM |  |  |  |  |  |  |  |  |  | 
CCCC(=O)NC(c1ccc2c(c1)OCO2)c1ccc2cccnc2c1O (stereo not given) | > 100 µM | > 100 µM | 78.8 µM | > 100 µM | > 100 µM | 15.4 µM | 42.6 µM | > 100 | 3.9 µM | > 100 µM | 0.466 µM | 0.46 µM | 5.76 µM | 0.976 µM | 2.17 µM | 0.427 µM | 0.728 µM | 1.41 | 1.74 µM | 2.28 µM
CC12CCc3ccccc3C1=Nc1ccccc12 (stereo not given) | > 100 µM | 47.3 µM | 46.7 µM | > 100 µM | > 100 µM | 66.5 µM | > 100 µM | 78.5 | 30.4 µM | 43.7 µM |  |  |  |  |  |  |  |  |  | 
CCCCCC(=O)OCC(=O)O[C@@H]1C[C@]2(C(C)C)O[C@@]1(C)[C@@H]1CC[C@@H](C)[C@H]1[C@@H]2OC(=O)/C=C/c1ccccc1 | 10.1 µM | > 100 µM | 0.0315 µM | > 100 µM | > 57 µM | > 67.3 µM | > 100 µM | > 76.2 | > 77.4 µM | > 78.7 µM | 0.0387 µM | > 37.6 µM |  | > 41.3 µM | > 35.4 µM | > 46.6 µM | > 68.2 µM | > 51.3 | 42.5 µM | 2.9 µM
CC1CCC2C(C)C3C(CC4C5CC=C6CC(OC7OC(CO)C(O)C(OC8OC(CO)C(O)C(O)C8O)C7OC7OC(C)C(O)C(O)C7O)CCC6(C)C5CCC43C)N2C1 (stereo not given) | 20.3 µM and > 2.5 µg/mL | 28.2 µM and > 2.5 µg/mL | 32.6 µM and > 2.5 µg/mL | 54.4 µM and > 2.5 µg/mL | 65.3 µM and > 2.5 µg/mL | 31.7 µM and > 2.5 µg/mL | 22.7 µM and > 2.5 µg/mL | 23.8 | 33.3 µM and > 2.5 µg/mL | 24.3 µM and > 2.5 µg/mL | > 2.5 µg/mL | > 2.5 µg/mL | > 2.5 µg/mL | > 2.5 µg/mL | > 2.5 µg/mL | > 2.5 µg/mL | > 2.5 µg/mL |  | > 2.5 µg/mL | > 2.5 µg/mL
Oc1ccc(Br)cc1/C=N/NC(=S)NC12CC3CC(CC(C3)C1)C2 | 10.3 µM | 8.14 µM | 6.69 µM | 5.3 µM | 6.26 µM | 3.71 µM | 7.89 µM | 11.3 | 3.74 µM | 3.18 µM | 2.08 µM | 0.897 µM | 1.99 µM | 1.87 µM | 2.23 µM | 1.67 µM | 2.6 µM | 3.19 | 1.72 µM | 1.63 µM
NC(N)=N/N=C/c1cccc(Cl)c1Cl | 25.9 µM | 29.2 µM | 34.9 µM | 13.9 µM | 18.1 µM | 14.9 µM | 10.3 µM | 31.2 | 6.64 µM | 16.3 µM | 12.4 µM | 7.26 µM | 12.2 µM | 3.92 µM | 4.62 µM | 4.55 µM | 2.83 µM | 15.6 | 2.33 µM | 3.92 µM
CC(F)(F)c1cc(F)ccc1-c1sc2cc(O)ccc2c1Oc1ccc(/C=C/C(=O)O)cc1 | 45.5 µM | 94.4 µM | 32.8 µM | 79.2 µM | 44.4 µM | 20.9 µM | 20.5 µM | 21 | 15.3 µM | 46 µM | 10.3 µM | 6.68 µM | 4.89 µM | 6.7 µM | 11.6 µM | 8.81 µM | 5.23 µM | 5.95 | 4.05 µM | 14 µM
O=C(N=Nc1c(O)[nH]c2c(Cl)cc(Cl)cc12)c1ccncc1 | > 100 µM | > 100 µM | > 100 µM | 99.5 µM | 32.7 µM | 37.5 µM | > 100 µM | 51.1 | 33.4 µM | 64.4 µM |  |  |  |  |  |  |  |  |  | 
CCOC(=O)CNC(=O)CCCn1c(=O)c2c3ccccc3n(C)c2n2nnc(-c3ccccc3)c12 | 33.7 µM | > 50 µM | > 50 µM | > 50 µM | > 50 µM | 48.8 µM | 17.4 µM | 11.6 |  | > 50 µM | 9.24 µM | 26.5 µM | 4.51 µM | 4.73 µM | > 50 µM | 12.5 µM | 4.83 µM | 4.3 |  | > 50 µM
CCCCCCCCCCCCOC1C(C(COC2OC(C(O)CN3CCCCC3)C3OC(C)(C)OC23)NC(=O)Nc2ccccc2)OC2OC(C)(C)OC21 (stereo not given) | 34.5 µM | 2.23 µM | 23.6 µM | 5.65 µM | 22.2 µM | 34.6 µM | 31.7 µM | 31.4 | 21.7 µM | 33.2 µM | 17.3 µM | 0.863 µM | 8.75 µM | 2.06 µM | 10.1 µM | 14.7 µM | 15.3 µM | 16.6 | 8.66 µM | 16 µM
BrC(Br)(Br)c1cnc2ccccc2n1 | 2.84 µM | 2.42 µM | 7 µM | 3.55 µM | 5.28 µM | 3.04 µM | 15.4 µM | 4.86 | 7.54 µM | 14.1 µM | 1.41 µM | 0.49 µM | 2.47 µM | 1.12 µM | 1.55 µM | 1.5 µM | 3.75 µM | 2.21 | 2.32 µM | 3.71 µM
O=C1NC(=O)C2(CCC(O)C2)c2cc[n+]([O-])cc21 (stereo not given) | > 100 µM | > 100 µM | > 100 µM | > 100 µM | > 100 µM | > 100 µM | > 100 µM | > 100 |  | > 100 µM |  |  |  |  |  |  |  |  |  | 
